Results: ChEMBL document CHEMBL1944587, “4-Piperidin-4-ylidenemethyl-benzamides as δ-opioid receptor agonists for CNS indications: identifying clinical candidates” (Bioorg Med Chem Lett, 2012)

assay: physchem; details: octanol/water

Row | Compound | logD
1 | O=C(c1ccc(C(=C2CCN(Cc3cscn3)CC2)c2cccc3cccnc23)cc1)N1CCCC1 | 2.8
2 | CN1CCN(C(=O)c2ccc(C(=C3CCN(Cc4cscn4)CC3)c3cccc4cccnc34)cc2)CC1 | 2
3 | O=C(c1ccc(C(=C2CCN(Cc3cscn3)CC2)c2cccc3cccnc23)cc1)N1CCC(O)CC1 | 1.9
4 | CN(C)C(=O)c1ccc(C(=C2CCN(Cc3cscn3)CC2)c2cccc3cccnc23)cc1 | 2.3
5 | O=C(c1ccc(C(=C2CCN(Cc3cscn3)CC2)c2cccc3cccnc23)cc1)N1CCOCC1 | 2.1
